According to patent US4073883A, “Method for treatment of impaired hearing” (priority 1976, dated 1978):

Tests used:
mice of ICR-JCL strain = assay: Acute toxicity test in mice (single dose, 7 days observation); assay type: in vivo; settings: for Maximum dose (no case of deaths): 7 days
From the text: (§1) In order to evaluate the acute toxicity of a single high dose administration of Coenzyme Q10, male and female rats of Wistar strain and male and female mice of ICR-JCL strain were used, and oral, intramuscular, subcutaneous, and intravenous administrations were studied. For the oral administration of Coenzyme Q10, gum Arabic suspension was used. For the intramuscular, subcutaneous and intravenous administrations, Coenzyme Q10 was used as its solution in a nonionic surfactant, Nikkol HCO-60. Nikkol HCO-60 is a trade name of a non-ionic surfactant comprised of hydrogenated castor oil/polyoxyethylene-60 mole ether available from Nikko Chemicals, Co. Ltd., Japan.
(§2) Observations were carried out for 7 days by using six males and six females for each dose group.

mice = assay: Teratogenesis test in mice; assay type: in vivo; settings: 6, 60 and 600 mg/Kg/day
[1] = system: patients having impaired hearing caused by administration of a drug; assay: Clinical test on the administration of Coenzyme Q10 for impaired hearing (audiometry); assay type: in vivo, human
Protocol: 30 Mg/day of Coenzyme Q10 was administered perorally three times a day after meal. Duration of administration differed with patients in the range of from two weeks to four months.
Coenzyme Q10 was administered to 9 patients having impaired hearing caused by administration of a drug (an antibiotic called poison against hearing organs). 8 of 9 patients were being administered with some poison against hearing organs at the time of the first medical examination of otorhinology. The remaining one patient was given streptomycin more than 10 years before then. It was pointed out that labyrinthine disorder was observed already and the administration of the poisons against hearing organs was discontinued in 5 of the 8 cases. In the remaining 3 cases, the treatment of the diseases with the poisons against hearing organs was continued with administration of Coenzyme Q10.
In many cases, a combination of drugs such as combination of streptomycin (SM) with kanamycin (KM), kanendomycin (KDM) or gentamycin (GM) had been used.
Determination of hearing acuity threshold value in air conduction and bone conduction and recruitment test were effected using an audiometer in a sound-proof chamber.
The sum of the air conduction threshold value was determined in terms of decibel units and the values before and after the administration of Coenzyme Q10 were compared with each other.
Air condition region values at 125 Hz, 250 Hz, 1 KHz, 2 KHz, 4 KHz and 8 KHz in audiogram were added together to obtain a value called the total region value at that time. In case the difference in the value between before and after the administration of Coenzyme Q10 is more than ± 35 db, it was judged to be improved or worsened and in case the difference is within 35 db, it was judged to be unchanged. In case a threshold value of a certain frequency is scaled out, a value of the maximum output at that frequency plus 5 db. was employed.

rats of Wistar strain [2] = assay: Subacute oral toxicity test in rats (5 weeks); assay type: in vivo
Protocol: Coenzyme Q10 was compulsorily and orally administered every day for 5 weeks to each group consisting of 10 male rats and 10 female rats of Wistar strain. The dose was 40, 200, and 1000 mg/Kg/day, respectively. Coenzyme Q10 was used in the form of gum Arabic suspension, while the solution containing gum Arabic alone was used as the control group. Collection of blood and urine samples and autopsies were carried out 5 weeks after the initiation of administration.

rabbits = assay: Subacute oral toxicity test in rabbits (23 days); assay type: in vivo
Protocol: Coenzyme Q10 was compulsorily and orally administered every day for 23 days to each group consisting of 6 male rabbits and 5 female rabbits. The dose was 6, 60 and 600 mg/Kg/day, respectively. Coenzyme Q10 was used in the form of gum Arabic suspension, whereas the solution containing gum Arabic alone was used as the control group. On the 24th day, blood samples were collected from all the animals, and 3 males and 2 females from each group were then selectively autopsied.

rats of Wistar strain [3] = assay: Acute toxicity test in rats (single dose, 7 days observation); assay type: in vivo; settings: for Maximum dose (no case of deaths): 7 days
From the text: as §1, §2

rats of Wistar strain [4] = assay: Chronic oral toxicity test in rats (26 weeks); assay type: in vivo
Protocol: Coenzyme Q10 was compulsorily and orally administered to each group consisting of 10 male rats and 10 female rats of Wistar strain for 26 consecutive weeks in a ratio of 6 days a week. The dose was 6, 60 and 600 mg/Kg/day, respectively. Coenzyme Q10 was used in the form of gum Arabic suspension, whereas the solution containing gum Arabic alone is used as the control group. Collection of blood and urine samples and autopsies were carried out 26 weeks after the administration.

rats = assay: Teratogenesis test in rats; assay type: in vivo; settings: 6, 60 and 600 mg/Kg/day
[5] = intramuscular, in Nikkol HCO-60, single dose
[6] = intravenous, in Nikkol HCO-60, single dose
[7] = oral, gum Arabic suspension, single dose
[8] = relative to maximum doses of Table 1
[9] = subcutaneous, in Nikkol HCO-60, single dose
[10] = 6, 60, 600 mg/Kg/day oral, 23 days
[11] = attributed to spontaneous pneumonia and aspiration pneumonia due to an erroneous administration

COC1=C(OC)C(=O)C(C/C=C(\C)CC/C=C(\C)CC/C=C(\C)CC/C=C(\C)CC/C=C(\C)CC/C=C(\C)CC/C=C(\C)CC/C=C(\C)CC/C=C(\C)CCC=C(C)C)=C(C)C1=O [Coenzyme Q10]
toxicity (overall, acute) (mice of ICR-JCL strain; acute, overall): extremely low
Maximum dose (no case of deaths) (mice of ICR-JCL strain; [5]): 500 mg/kg
Maximum dose (no case of deaths) (mice of ICR-JCL strain; [6]): 250 mg/kg
deaths (mice of ICR-JCL strain; maximum dose in each route): no case of deaths
Maximum dose (no case of deaths) (mice of ICR-JCL strain; [7]): 4000 mg/kg
LD50 (mice of ICR-JCL strain; [8]): far higher than the maximum dose
Maximum dose (no case of deaths) (mice of ICR-JCL strain; [9]): 500 mg/kg
adverse effects in mothers, fetuses, and newborns (mice): no adverse effects
effectiveness as a medicament for treating impaired hearing ([1]; overall conclusion): effective as a medicament for treating impaired hearing
ears improved (number of 18 ears) ([1]; with Coenzyme Q10, of 18 ears): 13 ears
ears improved (percent) ([1]; with Coenzyme Q10, of 18 ears): 72%
ears unchanged (number of 18 ears) ([1]; with Coenzyme Q10, of 18 ears): 5 ears
ears unchanged (percent) ([1]; with Coenzyme Q10, of 18 ears): 28%
worsening ([1]; with Coenzyme Q10, of 18 ears): no worsening being observed
general condition and body weight vs control (rats of Wistar strain [2]; 40, 200, 1000 mg/Kg/day oral, 5 weeks): no difference
dead animals during the experiment (rats of Wistar strain [2]; attributed to spontaneous pneumonia and aspiration pneumonia due to an error of administration): 4 animals
toxicity seemingly due to the administration (rats of Wistar strain [2]; subacute oral, 5 weeks, overall): there was not recognized the toxicity
general condition and increase of body weight vs control (rabbits; [10]): no difference
weight of each organ (rabbits; [10]): no effect
electron-microscopic observation of liver (rabbits; 7th, 14th, and 24th days after the administration): there were not recognized abnormal findings
findings suggesting toxicity (rabbits; subacute oral, 23 days, overall): there were not recognized the findings
toxicity (overall, acute) (rats of Wistar strain [3]; acute, overall): extremely low
Maximum dose (no case of deaths) (rats of Wistar strain [3]; [5]): 500 mg/kg
Maximum dose (no case of deaths) (rats of Wistar strain [3]; [6]): 250 mg/kg
deaths (rats of Wistar strain [3]; maximum dose in each route): no case of deaths
Maximum dose (no case of deaths) (rats of Wistar strain [3]; [7]): 4000 mg/kg
LD50 (rats of Wistar strain [3]; [8]): far higher than the maximum dose
Maximum dose (no case of deaths) (rats of Wistar strain [3]; [9]): 500 mg/kg
body weight vs control (rats of Wistar strain [4]; 6, 60, 600 mg/Kg/day oral, 26 weeks): increased as same as that of the control group
general condition vs control (rats of Wistar strain [4]; 6, 60, 600 mg/Kg/day oral, 26 weeks, 6 days a week): no difference
biochemical tests of blood and urine vs control (rats of Wistar strain [4]; 26 weeks): No significant changes were recognized
weight of organs (rats of Wistar strain [4]; 26 weeks): no significant increase and decrease
deaths, females (rats of Wistar strain [4]; [11]): 3 females
deaths, males (rats of Wistar strain [4]; [11]): 11 males
toxicity (rats of Wistar strain [4]; chronic oral, 26 weeks, overall): no toxicity was observed
macroscopical and histological observation vs control (rats of Wistar strain [4]; hemoxylin.Eosine staining and liver fat staining, 26 weeks): abnormalities were not recognized
leukocytal percentages (rats of Wistar strain [4]; not dose related, within the extent of physiological fluctuations): some increase and decrease
adverse effects in mothers, fetuses, and newborns (rats): no adverse effects
